Like-named read-outs stand apart in the source and are kept apart here. Bridge positions count the residues as written; N and C are the ends. Square brackets hold non-standard residues; d marks the D form. Ends that are not written are not given here. Peptide text beside a SMILES is read from it. Cit = NC(=O)NCCC[C@H](N)C(=O)O
What was measured:
LSD1 [1] = biological target: T1, LSD1 (Homo sapiens, UniProt O60341); experiment: SPR biosensor interaction kinetic assay with immobilized LSD1 (15 °C, TBS-T with DTT); format: binding
T1 construct: made in house; host or cells: Escherichia coli Rosetta 2 (pET15b)

LSD1 [2] = biological target: T1, LSD1; experiment: HRP-coupled fluorescence LSD1 demethylation activity and inhibition assay, substrate H3_1-21 K4(Me); format: biochemical
[3] = 100 μM, supplement sheet SMILES and Activity, read-out: Inhibition at 100 μM (%)
[4] = read-out: % inhibition at 100 μM
[5] = supplement sheet SMILES and Activity, read-out: IC50

Row | inhibition at 100 µM (LSD1 [2]; [4]) | Compound | Kd (LSD1 [1]) | inhibition at 100 µM (LSD1 [2]; [3]) | also measured
1 | – | C[C@H](N)C(=O)N[C@@H](CCCNC(=N)N)C(=O)N[C@H](C(=O)N[C@@H](CCc1ccccc1)C(=O)N[C@@H](CCC(N)=O)C(=O)N[C@H](C(=O)N[C@@H](C)C(=O)N[C@@H](CCCNC(=N)N)C(=O)N[C@@H](CCCCN)C(=O)N[C@@H](CO)C(=O)N[C@H](C(N)=O)[C@@H](C)O)[C@@H](C)O)[C@@H](C)O [Peptide 17, ART(homoPhe)QTARKST-NH2] | > 200 µM | – | –
2 | – | C[C@H](N)C(=O)N[C@@H](CCCNC(=N)N)C(=O)N[C@H](C(=O)N[C@@H](CCCCN)C(=O)N[C@@H](CCC(N)=O)C(=O)N[C@H](C(=O)N[C@@H](C)C(=O)N[C@@H](CCCNC(=N)N)C(=O)N[C@@H](CCCCN)C(=O)N[C@@H](CO)C(=O)N[C@H](C(N)=O)[C@@H](C)O)[C@@H](C)O)[C@@H](C)O [Peptide 9] | > 100 µM | – | –
3 | – | CSCC[C@H](NC(=O)[C@@H](NC(=O)[C@H](CCCNC(=N)N)NC(=O)[C@H](C)N)[C@@H](C)O)C(=O)N[C@@H](CCC(N)=O)C(=O)N[C@H](C(=O)N[C@@H](C)C(=O)N[C@@H](CCCNC(=N)N)C(=O)N[C@@H](CCCCN)C(=O)N[C@@H](CO)C(=O)N[C@H](C(=O)O)[C@@H](C)O)[C@@H](C)O [Peptide 4] | – | – | Kd (LSD1 [1]; KD, SPR, immobilized LSD1, 15 °C, ni = no interaction observed, ns = high nonspecific binding, weak interactions only approximated, highest concentration 200 μM): ~140 µM; IC50 (LSD1 [2]): > 100 µM
4 | – | CCCC[C@H](NC(=O)[C@@H](NC(=O)[C@H](CCCNC(=N)N)NC(=O)[C@H](C)N)[C@@H](C)O)C(=O)N[C@@H](CCC(N)=O)C(=O)N[C@H](C(=O)N[C@@H](C)C(=O)N[C@@H](CCCNC(=N)N)C(=O)N[C@@H](CCCCN)C(=O)N[C@@H](CO)C(=O)N[C@H](C(N)=O)[C@@H](C)O)[C@@H](C)O [Peptide 15, ART(Nle)QTARKST-NH2] | > 200 µM | – | –
5 | – | CSCC[C@H](NC(=O)[C@@H](NC(=O)[C@H](CCCNC(=N)N)NC(=O)[C@H](C)N)[C@@H](C)O)C(=O)N[C@@H](CCC(N)=O)C(=O)N[C@H](C(=O)N[C@@H](C)C(=O)N[C@@H](CCCNC(=N)N)C(=O)N[C@@H](CCCCN)C(=O)O)[C@@H](C)O [Peptide 5] | > 200 µM | – | –
6 | – | ARTMQTA-OH [Peptide 6, ARTMQTA-OH] | > 200 µM | – | –
7 | – | PRTMQTARKST-NH2 [Peptide 11] | 10 µM | 93% | Ki (LSD1 [2]): 8 µM; mode of inhibition (LSD1 [2]; enzyme activity assay, inhibition kinetics): competitive inhibitor; IC50 (LSD1 [2]; [5]): 12.5 µM
8 | < 30% | CSCC[C@@H]1NC(=O)[C@@H](NC(=O)[C@H](CCCNC(=N)N)NC(=O)[C@H](C)N)CCCCn2cc(nn2)C[C@@H](C(=O)N[C@@H](C)C(=O)N[C@@H](CCCNC(=N)N)C(=O)N[C@@H](CCCCN)C(=O)N[C@@H](CO)C(=O)N[C@H](C(N)=O)[C@@H](C)O)NC(=O)[C@H](CCC(N)=O)NC1=O [Peptide 35, ARK^azdMQG^prgARKST-NH2] | – | – | inhibition of LSD1 (in words) (LSD1 [2]; enzyme activity assay): weak competitive inhibitors; Ki (LSD1 [2]; read-out: Ki): > 100 µM
9 | – | CSCC[C@H](NC(=O)[C@@H](NC(=O)[C@H](CCCNC(=N)N)NC(=O)[C@H](C)N)[C@@H](C)O)C(=O)N[C@@H](CCC(N)=O)C(=O)N[C@H](C(=O)N[C@@H](C)C(=O)N[C@@H](CCCNC(=N)N)C(=O)N[C@@H](CCCCN)C(=O)N[C@@H](CO)C(=O)N[C@H](C(=O)NCC(=O)NCC(=O)N[C@@H](CCCCN)C(=O)N[C@@H](C)C(=O)O)[C@@H](C)O)[C@@H](C)O [Peptide 2] | 5 µM | – | –
10 | 97% | CSCC[C@@H]1NC(=O)[C@@H](NC(=O)[C@H](CCCNC(N)=O)NC(=O)[C@H](C)N)CCC(=O)NCCCC[C@@H](C(=O)N[C@@H](C)C(=O)N[C@@H](CCCNC(=N)N)C(=O)N[C@@H](CCCCN)C(=O)N[C@@H](CO)C(=O)N[C@H](C(N)=O)[C@@H](C)O)NC(=O)[C@H](CCC(N)=O)NC1=O [Peptide 33] (H-A[Cit]EMQKARKST-NH2; lactam 3-6) | – | 97% | IC50 (LSD1 [2]; [5]): 13 µM
11 | 70% | CSCC[C@@H]1NC(=O)[C@@H](NC(=O)[C@H](CCCNC(=N)N)NC(=O)[C@H](C)N)Cc2cn(nn2)CCCC[C@@H](C(=O)N[C@@H](C)C(=O)N[C@@H](CCCNC(=N)N)C(=O)N[C@@H](CCCCN)C(=O)N[C@@H](CO)C(=O)N[C@H](C(N)=O)[C@@H](C)O)NC(=O)[C@H](CCC(N)=O)NC1=O [Peptide 36, ARG^prgMQK^azdARKST-NH2] | – | 70% | inhibition of LSD1 (in words) (LSD1 [2]; enzyme activity assay): weak competitive inhibitors; Ki (LSD1 [2]; read-out: Ki): 30 µM; IC50 (LSD1 [2]; [5]): 60 µM
12 | – | CCCCCC[C@H](NC(=O)[C@@H](NC(=O)[C@H](CCCNC(=N)N)NC(=O)[C@H](C)N)[C@@H](C)O)C(=O)N[C@@H](CCC(N)=O)C(=O)N[C@H](C(=O)N[C@@H](C)C(=O)N[C@@H](CCCNC(=N)N)C(=O)N[C@@H](CCCCN)C(=O)N[C@@H](CO)C(=O)N[C@H](C(N)=O)[C@@H](C)O)[C@@H](C)O [Peptide 16, ART(Aoc)QTARKST-NH2] | > 200 µM | – | –

Row | Compound | inhibition at 100 µM (LSD1 [2]; [4]) | Kd (LSD1 [1]) | inhibition at 100 µM (LSD1 [2]; [3]) | also measured
13 | CSCC[C@@H]1NC(=O)[C@@H](NC(=O)[C@H](CCCNC(=N)N)NC(=O)[C@H](C)N)C/C=C\C[C@@H](C(=O)N[C@@H](C)C(=O)N[C@@H](CCCNC(=N)N)C(=O)N[C@@H](CCCCN)C(=O)N[C@@H](CO)C(=O)N[C@H](C(N)=O)[C@@H](C)O)NC(=O)[C@H](CCC(N)=O)NC1=O [Peptide 21, ARG^alyMQG^alyARKST-NH2] | 95% | > 100 µM | 95% | –

From PMC7057333 (ACS Omega, 2020)
